Measured values published in patent US20260103455A1, “ULK3 INHIBITORS AND USES THEREOF” (H. LEE MOFFITT CANCER CENTER AND RESEARCH INSTITUTE, INC., priority 2022, published 2026).
“And” between values parts separate entries of the source, which are not always exact repeats. Equal values may be shown once. Where a name gives a salt, the structure may show the parent alone.

Columns and labels:
ULK3 = target: T1, ULK3 (Homo sapiens, UniProt Q6PHR2); assay: DSF (ULK3) thermal shift; format: binding
T1 sequence (Q6PHR2 1-472): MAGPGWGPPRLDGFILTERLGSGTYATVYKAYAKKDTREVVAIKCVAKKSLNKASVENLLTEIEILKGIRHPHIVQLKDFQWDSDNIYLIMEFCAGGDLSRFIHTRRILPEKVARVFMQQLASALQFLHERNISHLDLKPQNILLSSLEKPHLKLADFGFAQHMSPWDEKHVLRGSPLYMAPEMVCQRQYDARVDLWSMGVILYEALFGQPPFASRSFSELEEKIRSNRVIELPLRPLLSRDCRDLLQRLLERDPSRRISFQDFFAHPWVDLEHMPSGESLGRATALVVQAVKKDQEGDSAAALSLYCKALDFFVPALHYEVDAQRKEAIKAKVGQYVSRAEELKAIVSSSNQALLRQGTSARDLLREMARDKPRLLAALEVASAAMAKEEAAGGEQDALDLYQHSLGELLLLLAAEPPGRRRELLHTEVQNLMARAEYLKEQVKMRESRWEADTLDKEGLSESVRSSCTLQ

JAK2 = JAK2 (Homo sapiens, UniProt O60674); assay: DSF (JAK2) thermal shift; format: binding
Sequence of JAK2 (O60674 whole entry): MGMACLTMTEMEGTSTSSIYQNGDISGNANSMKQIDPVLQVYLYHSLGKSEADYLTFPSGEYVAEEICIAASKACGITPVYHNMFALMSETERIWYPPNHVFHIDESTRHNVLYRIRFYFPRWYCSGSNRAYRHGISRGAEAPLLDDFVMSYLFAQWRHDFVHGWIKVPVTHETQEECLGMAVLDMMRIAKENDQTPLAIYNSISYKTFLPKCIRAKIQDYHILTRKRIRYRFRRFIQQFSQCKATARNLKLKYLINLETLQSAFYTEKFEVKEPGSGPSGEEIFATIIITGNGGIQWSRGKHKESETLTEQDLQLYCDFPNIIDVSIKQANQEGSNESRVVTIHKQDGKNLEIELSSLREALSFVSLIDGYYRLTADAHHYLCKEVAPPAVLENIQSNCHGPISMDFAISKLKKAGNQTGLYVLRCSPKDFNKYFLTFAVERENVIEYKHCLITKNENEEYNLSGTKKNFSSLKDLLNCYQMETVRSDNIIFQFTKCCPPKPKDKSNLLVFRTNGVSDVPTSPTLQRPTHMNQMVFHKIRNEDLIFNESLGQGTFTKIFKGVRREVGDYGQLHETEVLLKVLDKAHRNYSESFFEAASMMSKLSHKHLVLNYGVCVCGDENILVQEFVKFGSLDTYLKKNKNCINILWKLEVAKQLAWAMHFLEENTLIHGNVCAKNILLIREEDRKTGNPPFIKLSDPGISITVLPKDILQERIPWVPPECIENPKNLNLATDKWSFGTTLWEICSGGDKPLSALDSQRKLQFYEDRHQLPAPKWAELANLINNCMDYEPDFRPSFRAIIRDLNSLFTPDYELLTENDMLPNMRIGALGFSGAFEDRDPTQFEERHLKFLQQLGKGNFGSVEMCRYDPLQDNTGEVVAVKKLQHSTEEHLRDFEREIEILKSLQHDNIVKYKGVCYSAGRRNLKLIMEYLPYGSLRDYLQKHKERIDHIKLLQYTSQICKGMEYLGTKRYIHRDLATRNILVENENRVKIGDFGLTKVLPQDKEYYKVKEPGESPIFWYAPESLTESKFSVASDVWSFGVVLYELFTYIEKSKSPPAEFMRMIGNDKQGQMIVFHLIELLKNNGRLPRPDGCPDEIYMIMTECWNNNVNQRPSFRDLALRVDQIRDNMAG

Row | Compound | DSF (ULK3) ΔTm (° C.) (ULK3) | DSF (JAK2) ΔTm (° C.) (JAK2) [°C]
1 | N#CCNC(=O)c1ccc(-c2ncnc3[nH]ccc23)cc1 [BL4-136] | 5.1 °C | 1
2 | N#CCNC(=O)c1ccc(-c2nc(Nc3ccc(N4CCOCC4)cc3)ncc2Cl)cc1 [GM1-048, 4-(5-Chloro-2-((4-morpholinophenyl)amino)pyrimidin-4-yl)-N-(cyanomethyl)benzamide] | 11.0 °C and 13.1 °C | 6.48
3 | COC(=O)c1ccc(Nc2nccc(-c3ccc(C(=O)NCC(F)(F)F)cc3)n2)cc1F [BH1-104, Methyl 2-fluoro-4-((4-(4-((2,2,2-trifluoroethyl)carbamoyl)phenyl)pyrimidin-2-yl)amino)benzoate] | 6.9 °C | 0.05
4 | COC[C@H](NC(=O)c1ccc(-c2ccnc(Nc3ccc(N4CCOCC4)cc3)n2)cc1)c1ccccc1 [BR1-038, (R)—N-(2-Methoxy-1-phenylethyl)-4-(2-((4-morpholinophenyl)amino)pyrimidin-4-yl)benzamide] | 8.4 °C | 
5 | N#CCNC(=O)c1ccc(-c2nc(Nc3ccc(N4CCOCC4)cc3)ncc2F)cc1 [GM1-034, N-(Cyanomethyl)-4-(5-fluoro-2-((4-morpholinophenyl)amino)pyrimidin-4-yl)benzamide] | 10.6 °C | 
6 | CN1CCC(c2ccc(Nc3ncc(F)c(-c4ccc(C(=O)NCC#N)cc4)n3)cc2F)CC1 [GM1-064, N-(Cyanomethyl)-4-(5-fluoro-2-((3-fluoro-4-(1-methylpiperidin-4-yl)phenyl)amino)pyrimidin-yl)benzamide] | 8.0 °C | 3.68
7 | Cc1cnc(Nc2ccc(C(=O)NC3CCN(C)CC3)c(F)c2)nc1Nc1ccc(Cl)c(NS(=O)(=O)C(C)(C)C)c1 [SG3-179, reference compound] | 10.6 °C | 
8 | O=C(c1ccc(-c2ccnc(Nc3cccc(N4CCOCC4)c3)n2)cc1)N1CCC[C@H]1C(F)(F)F [BR1-048] | 9.3 °C | 
9 | COC[C@H](Cc1ccccc1)NC(=O)c1ccc(-c2ccnc(Nc3ccc(N4CCOCC4)cc3)n2)cc1 [BR1-012] | 5.8 °C | 0.1
10 | CN1CCN(c2cccc(Nc3nccc(-c4ccc(C(=O)N5CCC[C@H]5C(F)(F)F)cc4)n3)c2)CC1 [BH2-013, (S)-(4-(2-((3-(4-Methylpiperazin-1-yl)phenyl)amino)pyrimidin-4-yl)phenyl) (2-(trifluoromethyl)pyrrolidin-1-yl) methanone] | 10.9 °C | 
11 | CN1CCC(c2cnc(Nc3nc(-c4ccc(C(=O)NCC#N)cc4)c4cc[nH]c4n3)cc2F)CC1 [RF1-058, N-(Cyanomethyl)-4-(2-((4-fluoro-5-(1-methylpiperidin-4-yl)pyridin-2-yl)amino)-7H-pyrrolo-[2,3-d]pyrimidin-4-yl)benzamide] | 6.8 °C | 
12 | 2-Fluoro-N-methyl-4-((4-(4-((2,2,2-trifluoroethyl)carbamoyl)phenyl)pyrimidin-2-yl) amino)benzamide [BH1-106] | 9.9 °C | 0.54
13 | CN1CCN(c2cccc(Nc3nccc(-c4ccc(C(=O)N5CCC[C@@H]5C(F)(F)F)cc4)n3)c2)CC1 [BH2-011, (R)-(4-(2-((3-(4-Methylpiperazin-1-yl)phenyl)amino)pyrimidin-4-yl)phenyl) (2-(trifluoromethyl)pyrrolidin-1-yl) methanone] | 14.5 °C and 14.4 °C | 
14 | N#CCNC(=O)c1ccc(-c2nc(Nc3ccc(N4CCOCC4=O)cc3)ncc2Cl)cc1 [GM1-072, 4-(5-Chloro-2-((4-(3-oxomorpholino)phenyl)amino)pyrimidin-4-yl)-N-(cyanomethyl)benzamide] | 11.8 °C | 
15 | N#CCNC(=O)c1ccc(-c2nc(Nc3ccc(N4CCOCC4=O)cc3)ncc2F)cc1 [GM1-036BA2, N-(Cyanomethyl)-4-(5-fluoro-2-((4-(3-oxomorpholino)phenyl)amino)pyrimidin-4-yl)benzamide] | 8.7 °C | 1.1
16 | N#CCNC(=O)c1ccc(-c2ccnc(Nc3ccc(N4CCOCC4)cc3)n2)cc1 [BL4-106 HCl salt, reference compound] | 14.3 °C and 9.9 °C | 

Row | Compound | DSF (ULK3) ΔTm (° C.) (ULK3) | DSF (JAK2) ΔTm (° C.) (JAK2) [°C]
17 | CN1CCN(c2cc(F)cc(Nc3nccc(-c4ccc(C(=O)NCC(F)(F)F)cc4)n3)c2)CC1 [BR1-051] | 11.1 °C | 
18 | CN1CCN(c2ccc(Nc3ncc(F)c(-c4ccc(C(=O)NCC#N)cc4)n3)cc2F)CC1 [BH1-095] | 8.8 °C | 
19 | N#CCNC(=O)c1ccc(-c2ccnc(Nc3ccc(N4CCOCC4)cc3)n2)cc1 [Momelotinib (BL4-106), Momelotinib, reference compound] | 14.3 °C and 10.6 °C and 13.2 °C | 
20 | N#CC(NC(=O)c1ccc(-c2ccnc(Nc3ccc(N4CCOCC4)cc3)n2)cc1)c1ccccc1 (centres unmarked) [BL4-153, N-(Cyano (phenyl)methyl)-4-(2-((4-morpholinophenyl)amino)pyrimidin-4-yl)benzamide] | 11.6 °C | 
21 | O=C(NCC(F)(F)F)c1ccc(-c2ccnc(Nc3ccc(N4CCOCC4)c(F)c3)n2)cc1 [BH1-138, 4-(2-((3-Fluoro-4-morpholinophenyl)amino)pyrimidin-4-yl)-N-(2,2,2-trifluoroethyl)benzamide] |  | 0.5
22 | CN1CCN(c2cc(F)cc(Nc3nccc(-c4ccc(C(=O)N5CCC[C@H]5C(F)(F)F)cc4)n3)c2)CC1 [BR1-053] | 10.5 °C | 
23 | O=C(c1ccc(-c2ccnc(Nc3cccc(N4CCOCC4)c3)n2)cc1)N1CCC[C@@H]1C(F)(F)F [BR1-047] | 13.4 °C | 
24 | CN1CCN(c2cccc(Nc3nccc(-c4ccc(C(=O)NCC(F)(F)F)cc4)n3)c2)CC1 [BH2-010, 4-(2-((3-(4-Methylpiperazin-1-yl)phenyl)amino)pyrimidin-4-yl)-N-(2,2,2-trifluoroethyl)benzamide] | 14.4 °C | 
25 | CN1CCN(c2cc(F)cc(Nc3nccc(-c4ccc(C(=O)N5CCC[C@@H]5C(F)(F)F)cc4)n3)c2)CC1 [BR1-052] | 14.1 °C | 
26 | CS(=O)(=O)O.Cc1cnc(Nc2ccc(C3CCN(C)CC3)c(F)c2)nc1Nc1ccc(Cl)c(NS(=O)(=O)C(C)(C)C)c1 [MA9-060, reference compound] | 11.9 °C and 12.6 °C | 
27 | Cc1cnc(Nc2ccc(N3CCOCC3)cc2)nc1-c1ccc(C(=O)NCC#N)cc1 [GM1-032, N-(Cyanomethyl)-4-(5-methyl-2-((4-(morpholino)phenyl)amino)pyrimidin-4-yl)benzamide] | 8.4 °C | 
28 | O=C(NCC(F)(F)F)c1ccc(-c2ccnc(Nc3cccc(N4CCOCC4)c3)n2)cc1 [BR1-045, 4-(2-((3-Morpholinophenyl)amino)pyrimidin-4-yl)-N-(2,2,2-trifluoroethyl)benzamide] | 14.7 °C | 
29 | O=C(NCC(F)(F)F)c1ccc(-c2ccnc(Nc3ccc(N4CCOCC4)cc3N3CCOCC3)n2)cc1 [BR1-054] | 1.3 °C | 
30 | O=C(N[C@H](CO)Cc1ccccc1)c1ccc(-c2ccnc(Nc3ccc(N4CCOCC4)cc3)n2)cc1 [BR1-034, (S)—N-(1-Hydroxy-3-phenylpropan-2-yl)-4-(2-((4-morpholinophenyl)amino)pyrimidin-4-yl)benzamide] | 9.1 °C | 
31 | COC[C@@H](NC(=O)c1ccc(-c2ccnc(Nc3ccc(N4CCOCC4)cc3)n2)cc1)c1ccccc1 [BR1-036, (S)—N-(2-Methoxy-1-phenylethyl)-4-(2-((4-morpholinophenyl)amino)pyrimidin-4-yl)benzamide] | 9.8 °C | 
